This note sets out measurements from PubChem BioAssay (NCI).

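Briefly, cells in 96-well plates were exposed to five compound concentrations for 48 h, and endpoints were estimated by linear interpolation. Abbreviation: GI50, concentration required for 50% inhibition of growth. Definition used: TGI = concentration required for complete inhibition of growth.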

Among the test systems are HCC-2998 colon; OVCAR-3 ovarian; 786-0 renal; T-47D breast; SK-MEL-5 melanoma; COLO 205 colon; K-562 leukemia; UACC-257 melanoma; DU-145 prostate; NCI-H460 lung; OVCAR-4 ovarian; ACHN renal.
Experiment in all cases: growth of human tumour cells (NCI), 48 h

With `CC(C)N(CC(=O)O)CC(=O)O`, the TGI with HCC-2998 colon, in the experiment with OVCAR-3 ovarian, with 786-0 renal, in the experiment with T-47D breast, in the experiment on SK-MEL-5 melanoma and in the experiment on COLO 205 colon was > 100 µM each time. Also, the TGI with K-562 leukemia, with UACC-257 melanoma, with DU-145 prostate, in the experiment with NCI-H460 lung, in the experiment with OVCAR-4 ovarian and in the experiment on ACHN renal was > 100 µM throughout.

Consider `CCCCCCCCCCCCCCCCCCN(C)CC(COC)OP(=O)([O-])OCC[N+](C)(C)C` (stereo not given), for which the TGI came out at 3.07 µM in the experiment on HCC-2998 colon; 11.2 µM in the experiment with OVCAR-3 ovarian; 2.57 µM in the experiment with 786-0 renal; 32.7 µM in the experiment with T-47D breast; 23.7 µM with SK-MEL-5 melanoma; 2.6 µM with COLO 205 colon. In addition, the TGI in the experiment on K-562 leukemia came to 40.2 µM; in the experiment with UACC-257 melanoma, 22.7 µM; in the experiment with DU-145 prostate, 5.13 µM; in the experiment with NCI-H460 lung, 2.35 µM; in the experiment with OVCAR-4 ovarian, 9.75 µM; in the experiment on ACHN renal, 15.6 µM.

With `CC1CC(C)(O)C2C3(C)CCCC2(COC3=O)C12CCC1(CCOC1=O)O2` (stereo not given), the TGI in the experiment with HCC-2998 colon, with OVCAR-3 ovarian, in the experiment with SK-MEL-5 melanoma, in the experiment on COLO 205 colon, in the experiment on K-562 leukemia and in the experiment with UACC-257 melanoma was > 250 µM throughout. For the same molecule, the TGI with NCI-H460 lung and in the experiment on OVCAR-4 ovarian was > 250 µM throughout.

In the case of `O=C1c2cc3c(cc2[C@@H]2C(O)[C@H]4O[C@H]4C4CCN1C42)OCO3` (stereo not given in full), the TGI with HCC-2998 colon, with OVCAR-3 ovarian, with COLO 205 colon, in the experiment on K-562 leukemia, with NCI-H460 lung and in the experiment on OVCAR-4 ovarian was > 37.5 µM each time. Moreover, in the experiment with ACHN renal, the TGI was > 37.5 µM.

As for `Cc1csc2nc(-c3cc([N+](=O)[O-])c(Cl)cc3Cl)c(/C=N/N=C(N)N)n12`, the TGI with HCC-2998 colon worked out at 22.1 µM; in the experiment with OVCAR-3 ovarian, 43.6 µM; in the experiment with 786-0 renal, 49.3 µM; in the experiment with T-47D breast, 33.1 µM; in the experiment on SK-MEL-5 melanoma, 30.9 µM; in the experiment with COLO 205 colon, 36.8 µM. Moreover, the TGI turned out to be 20.4 µM with K-562 leukemia; 32.8 µM with UACC-257 melanoma; 32.3 µM in the experiment on DU-145 prostate; 45.7 µM in the experiment with NCI-H460 lung; 29.8 µM in the experiment on OVCAR-4 ovarian; 30.9 µM in the experiment with ACHN renal.

Turning to `Nc1[nH]c(=O)nc2c1cnn2COCCO`, the TGI with SK-MEL-5 melanoma, with COLO 205 colon, in the experiment on K-562 leukemia, in the experiment on UACC-257 melanoma, in the experiment on NCI-H460 lung and in the experiment on OVCAR-4 ovarian was > 100 µM throughout. Moreover, the TGI in the experiment with ACHN renal is > 100 µM.

As to `CN(C)CCC(=O)[C@@]1(O)CC[C@H]2[C@@H]3CC=C4C[C@@H](O)CC[C@]4(C)[C@H]3CC[C@@]21C`, the TGI in the experiment on HCC-2998 colon was 60 µM; with OVCAR-3 ovarian it was 29.7 µM; with 786-0 renal it was 13.6 µM; with T-47D breast, 23.5 µM; with SK-MEL-5 melanoma, > 81.8 µM; in the experiment on COLO 205 colon, 32.9 µM. For the same molecule, the TGI was 48.9 µM in the experiment with K-562 leukemia; 26.1 µM in the experiment on UACC-257 melanoma; 19.9 µM with DU-145 prostate; 30.9 µM in the experiment with NCI-H460 lung; > 78.2 µM in the experiment with OVCAR-4 ovarian; 29.5 µM with ACHN renal.

On to `c1ccc(-c2cc3nc4ccccc4nc3cc(-c3ccccc3)[nH][nH]2)cc1`, for which the TGI with HCC-2998 colon was > 100 µM; in the experiment on OVCAR-3 ovarian, 64.7 µM; in the experiment on 786-0 renal, > 100 µM; in the experiment with T-47D breast it was > 100 µM; in the experiment with SK-MEL-5 melanoma, > 100 µM; in the experiment on COLO 205 colon it was > 100 µM. The TGI with K-562 leukemia is > 100 µM; with UACC-257 melanoma, > 100 µM; in the experiment with DU-145 prostate, > 100 µM; in the experiment with NCI-H460 lung, > 100 µM; in the experiment with OVCAR-4 ovarian it was > 100 µM; in the experiment on ACHN renal it was 77.9 µM.

`CC(C)CC(N)C(=O)NC(CNC(CCC(N)=O)C(=O)NC(CC(C)C)C(=O)NC(CC(C)C)C(=O)O)Cc1ccc2ccccc2c1` (stereo not given): the TGI with HCC-2998 colon, with OVCAR-3 ovarian, in the experiment on 786-0 renal, in the experiment on SK-MEL-5 melanoma, with COLO 205 colon and in the experiment with K-562 leukemia was > 10 µM in each case. The TGI in the experiment on UACC-257 melanoma, in the experiment on DU-145 prostate, with NCI-H460 lung, in the experiment on OVCAR-4 ovarian and in the experiment on ACHN renal was > 10 µM in each case.

Take `CCn1c2ccccc2c2ccc(C3C4C(=O)N(c5cccc6ccccc56)C(=O)C4ON3C(C(N)=O)c3ccccc3)cc21` (stereo not given): the TGI in the experiment with OVCAR-3 ovarian, with 786-0 renal, with T-47D breast, with SK-MEL-5 melanoma, in the experiment with COLO 205 colon and with K-562 leukemia was > 25 µM throughout. Moreover, the TGI with UACC-257 melanoma, in the experiment on DU-145 prostate, with NCI-H460 lung, in the experiment with OVCAR-4 ovarian and in the experiment on ACHN renal was > 25 µM in each case.

Take `C[C@@]12CC[C@@H](O)C[C@@H]1CC[C@H]1[C@H]2CC[C@@]2(C)[C@H](c3ccc(=O)oc3)CC[C@@]12O`: the GI50 in the experiment on HCC-2998 colon was 0.0124 µM; with OVCAR-3 ovarian it was < 0.01 µM; in the experiment with T-47D breast, < 0.01 µM; in the experiment with SK-MEL-5 melanoma, < 0.01 µM; with K-562 leukemia, < 0.01 µM; with UACC-257 melanoma, < 0.0135 µM. The values for the GI50 in the experiment with DU-145 prostate and in the experiment on OVCAR-4 ovarian were < 0.01 µM and < 0.0124 µM, respectively. The TGI is 0.142 µM in the experiment with HCC-2998 colon; 0.0268 µM in the experiment with OVCAR-3 ovarian; 0.0577 µM in the experiment on T-47D breast; 0.0141 µM with SK-MEL-5 melanoma; 0.0309 µM in the experiment with K-562 leukemia; 0.0467 µM in the experiment with UACC-257 melanoma. Moreover, the TGI in the experiment with DU-145 prostate amounted to 0.0168 µM; in the experiment with OVCAR-4 ovarian, 0.0639 µM.
